Reference: PMC12567141, “Design, Synthesis and Biological Evaluation of Pyrazolopyrimidine Derivatives as Aryl Hydrocarbon Receptor Antagonists for Colorectal Cancer Immunotherapy” (Pharmaceutics, 2025)

Key:
[1] = Body weight during in vivo therapy; conditions: 7k-treated tumor-bearing mice during in vivo therapy
Experimental: In vivo experiments were conducted using 6-week-old male immunocompetent BALB/c and C57BL/6 with 18–20 g body weight (Orient Bio Inc., Seungnam, Republic of Korea). All animal experimental procedures were maintained and used in accordance with the Guidelines for the Care and Use of Laboratory Animals of the Institute of Laboratory Animal Center, Daegu-Gyeongbuk Medical Innovation Foundation (K-MEDI hub). The animal studies were conducted after approval by the institutional reviewer board on the Ethics of Animal Experiments of the Daegu-Gyeongbuk Medical Innovation Foundation (approval number: KMEDI-24041103-01).
Study 1: Antitumor activity of 7k alone in mice with either CT26 syngeneic model or MC38 syngeneic model. Mice were subcutaneously challenged with 5 × 10^5 either MC38 or CT26 cells. When tumor formation was detected via inspection and palpation, 7k treatment was initiated once a day for 14 days by oral gavage.
Study 2: Antitumor activity of combination with anti-PD1 and 7k in CT26 tumor bearing mice. Mice were subcutaneously challenged with 5 × 10^5 CT26 cells. Tumor bearing mice were divided into four groups as following; Group 1: vehicle, Group 2: 10 mg/kg anti-PD1, Group 3: 10 mg/kg 7k, and Group 4: 10 mg/kg anti-PD1 + 10 mg/kg 7k. 7k was administered by oral gavage once daily. […]

[2] = tested on: AhR nuclear translocation in MC38 cells; test: Kynurenine-induced AhR nuclear translocation (Western blot); format: cell-based; conditions: kynurenine-treated MC38 cells, 24 h
Experimental: Cells were harvested and washed twice in cold PBS. Cytoplasmic and nuclear protein were isolated by NE-PER^TM (Thermo Fisher Scientific, Waltham, MA, USA). The procedure was completed according to the kit instructions.
(§1) For the extraction of total protein, cells were treated with 7k for 24 h in a CO2 incubator at 37 °C and washed twice with phosphate-buffered saline (PBS). Cell pellets were lysed using radioimmunoprecipitation assay (RIPA) buffer (Thermo Fisher Scientific) containing a protease and phosphatase inhibitor cocktail kit (Thermo Fisher Scientific). The lysed cells were briefly vortexed at intervals and subsequently centrifuged at 13,000× g at 4 °C. The protein sample was quantified with the bicinchoninic acid (BCA) protein assay kit (Thermo Fisher Scientific).
Equal amounts of proteins were loaded onto 10% sodium dodecyl sulfate polyacrylamide gel electrophoresis and transferred onto PVDF membranes (Millipore, Billerica, MA, USA). The membrane was blocked with 5% skim milk in Tris-buffered saline (TBS) containing Tween-20 (TBS-T) for an hour and probed with the respective primary antibodies in 5% BSA overnight at 4 °C. Following incubation, the membrane was probed with horseradish peroxidase (HRP)-conjugated secondary antibodies for an hour at room temperature. […]

[3] = tested on: CD8+ IFNγ + T lymphocytes; test: Flow cytometry of CD8+ IFNγ+ T lymphocytes in splenocytes of tumour-bearing mice; format: in vivo; conditions: vs vehicle or single therapy
Experimental: For analysis of CD8+ IFNγ + T lymphocytes, splenocytes were collected from tumour-bearing mice and stimulated with a cell activation cocktail (BioLegend, San Diego, CA, USA) in the presence of Brefeldin A for 6 h. Splenocytes were stained with APC-conjugated CD8 and APC-Cy7-conjugated IFNγ Ab at 4 °C for 30 min (BioLegend). After washing with FACS buffer (Biolegend) three times, the cells were analysed using Becton Dickinson LSRFortessa^TM and analyzed with FlowJo software. Isotype-matched monoclonal antibodies were used as controls. The data were analysed using Flowjo analysis software v11. (Flowjo LLC, Ashland, OR, USA).

[4] = tested on: p53/p21/caspase-3 signaling pathway in MC38 and CT26 cells; test: Western blot of apoptosis-regulating proteins; format: cell-based; conditions: 24 h
Experimental: as §1
Equal amounts of proteins were loaded onto 10% sodium dodecyl sulfate polyacrylamide gel electrophoresis and transferred onto PVDF membranes (Millipore, Billerica, MA, USA). The membrane was blocked with 5% skim milk in Tris-buffered saline (TBS) containing Tween-20 (TBS-T) for an hour and probed with the respective primary antibodies in 5% BSA overnight at 4 °C. Following incubation, the membrane was probed with horseradish peroxidase (HRP)-conjugated secondary antibodies for an hour at room temperature. The membrane was washed three times with TBS-T and the signal was visualized using an enhanced chemiluminescence (ECL) detection reagent (GE Healthcare Life Sciences, Pittsburgh, PA, USA).
The primary antibodies used were as follows: Total p53 (Santa Cruz Biotechnology, Dallas, TX, USA, working dilution 1:500), PARP (CST, Danvers, MA, USA; working dilution 1:1000), cleaved caspase3 (CST, MA, USA; working dilution 1:1000), p21 (CST, MA, USA; working dilution 1:1000), Bcl-2 (CST, MA, USA; working dilution 1:1000), AhR (Santa Cruz; working dilution 1:500), LaminB1 (CST, MA, USA; working dilution 1:2000), GAPDH (Abcam, Cambridge, UK; working dilution 1:5000) and β-actin (CST, MA, USA; dilution 1:5000). HRP-conjugated secondary antibodies used were as follows: anti-mouse (CST, MA, USA) and anti-rabbit (CST, MA, USA).

HCT-116 cells = test: Clonogenic assay; format: cell-based; conditions: colorectal cancer cells vs vehicle-treated cells
Experimental: Cells were plated into 6-well plates and left for 48 h. After treatment with 5, 10 μM 7k for 24 h, the drug-containing medium was discarded, and cells were washed twice with PBS and left in complete culture medium for the time corresponding to six doublings. Finally, cells were fixed in 4% Paraformaldehyde (PFA) solution and stained with 0.05% crystal violet.

colorectal cancer cells = test: Cell viability assay (CCK-8), colorectal cancer cells; format: cell-based; conditions: 24 h
Experimental: Chinese hamster ovary CHO cells, mouse fibroblast L929 cells, normal colon CCD18-Co cells, monkey kidney fibroblast COS-7 cells, colorectal cancer cells including HCT-116, RKO, SW480, SW620, CT26, and MC38 cells were purchased from ATCC (American Type Culture Collection). CHO, L929, Cos-7, and all cancer cells were maintained in RPMI 1640 or DMEM supplemented with 10% FBS (Gibco FBS; Thermo Fisher Scientific, Hanover Park, IL, USA) and 1% streptomycin/penicillin. CCD18-Co cells were cultured in high-glucose Dulbecco modified Eagle medium containing 10% FBS and 1% streptomycin/penicillin. All cells were grown in 5% CO2 at 37 °C. Mycoplasma testing was regularly performed every month using the BioMycoX Mycoplasma PCR Detection Kit (CellSafe, Yongin, Republic of Korea).
Cell viability was analyzed using a Cell Counting Kit-8 (Dojindo molecular technologies, Rockville, MD, USA). Cells were seeded in 96-well plates and treated with different concentrations of 7k. At the indicated time points, CCK-8 (10 μL/well) reagents were added to the cells, followed by further incubation at 37 °C for 90 min. The absorbance at 450 nm was measured using a plate reader (BioTek instruments, Winooski, VT, USA).

Compound: CC(C)n1cc2nc(-c3cc(F)cc(F)c3)nc(NCCc3c[nH]c4ccccc34)c2n1 [Compound 7k, N-(2-(1H-indol-3-yl)ethyl)-5-(3,5-difluorophenyl)-2-isopropyl-2H-pyrazolo [4,3-d]pyrimidin-7-amine]
- body weight [1]: No abnormal reduction in body weight
- AhR expression in the nucleus [2]: decreased AhR expression in the nucleus
- levels of CD8+ IFNγ T lymphocytes [3]: increased the levels of CD8+ IFNγ T lymphocytes
- Bcl-2 expression [4]: downregulation of Bcl-2
- cleaved poly (ADP-ribose) polymerase and cleaved caspase 3 [4]: upregulation of cleaved poly (ADP-ribose) polymerase and cleaved caspase 3
- p21 expression [4]: increase in p21
- p53 expression [4]: upregulation of p53
- colony formation ability (HCT-116 cells): significant decrease in the colony formation ability
- cell proliferation / viability of colorectal cancer cells (colorectal cancer cells): dose-dependent decrease in cell proliferation
